Experimental data from patent US12071443B2, “Prolyl hydroxylase domain-containing protein (PHD) inhibitors and uses thereof” (Insilico Medicine IP Limited, priority 2021, dated 2024).

Tests used:
PHD2 = PHD2 (Homo sapiens, UniProt Q9GZT9); test: PHD2 enzymatic assay (AlphaScreen); type: biochemical; conditions: PHD2 enzyme, AlphaScreen, IC50 from % inhibition; read-out: PHD2
[1] = system: Caco2-HIF1α-HiBiT-clone-1 cells; test: Caco-2 HIF1α-HiBiT assay; type: cell-based; conditions: Homo sapiens, Caco-2; Caco2-HIF1α-HiBiT-clone-1 cells, 6 h incubation, luminescence; read-out: Caco2-HIF1α-HiBit assay - EC50

PHD2, sequence (Q9GZT9 whole entry): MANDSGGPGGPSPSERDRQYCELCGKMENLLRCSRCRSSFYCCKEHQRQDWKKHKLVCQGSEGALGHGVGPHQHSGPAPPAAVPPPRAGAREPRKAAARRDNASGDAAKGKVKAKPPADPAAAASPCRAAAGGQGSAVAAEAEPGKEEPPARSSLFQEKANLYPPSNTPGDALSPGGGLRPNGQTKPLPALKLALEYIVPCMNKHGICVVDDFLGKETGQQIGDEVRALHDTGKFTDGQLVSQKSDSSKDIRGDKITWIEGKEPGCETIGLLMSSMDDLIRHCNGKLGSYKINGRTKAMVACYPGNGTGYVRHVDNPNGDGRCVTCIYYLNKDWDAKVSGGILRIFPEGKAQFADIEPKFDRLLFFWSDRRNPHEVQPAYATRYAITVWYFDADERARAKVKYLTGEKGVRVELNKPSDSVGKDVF

Row | SMILES | IC50 (PHD2) [µM] | EC50 [1] [µM]
1 | C[C@@H](NC(=O)c1ncc2nc(N3CCOCC3)ccc2c1O)c1ccc(C#N)cc1 [Example 18] | 0.005 to 0.02 | 5 to 7.5
2 | CC(C)(C)OC(=O)N[C@H]1CCN(c2ccc3c(O)c(C(=O)NCc4ccc(C#N)nc4)ncc3n2)C1 [Example 125] | < 0.005 | < 2.5
3 | COCCN1CCN(c2ccc3c(O)c(C(=O)NCc4ccc(C#N)nc4)ncc3n2)CC1 [Example 75] | < 0.005 | 5 to 7.5
4 | N#Cc1ccc(CNC(=O)c2ncc3nc(N4CCOCC4=O)ccc3c2O)cn1 [Example 100] | 0.005 to 0.02 | 7.5 to 10
5 | CN1CCN(c2ccc3c(O)c(C(=O)NCc4ccc(C#N)nc4)ncc3n2)C[C@@H]1CO [Example 45, (R)—N-((6-cyanopyridin-3-yl)methyl)-5-hydroxy-2-(3-(hydroxymethyl)-4-methylpiperazin-1-yl)-1,7-naphthyridine-6-carboxamide] | < 0.005 | 10 to 100
6 | COCCC(=O)N1CCN(c2ccc3c(O)c(C(=O)NCc4ccc(C#N)nc4)ncc3n2)CC1 [Example 73, N-((6-cyanopyridin-3-yl)methyl)-5-hydroxy-2-(4-(3-methoxypropanoyl)piperazin-1-yl)-1,7-naphthyridine-6-carboxamide] | < 0.005 | 5 to 7.5
7 | COC(=O)C1CN(c2ccc3c(O)c(C(=O)NCc4ccc(C#N)nc4)ncc3n2)C1 [Example 84] | < 0.005 | 5 to 7.5
8 | N#Cc1ccc(CNC(=O)c2ncc3nc(N4CC[C@@H](CO)C4)ccc3c2O)cn1 [Example 42] | < 0.005 | 2.5 to 5
9 | COCCOC(=O)C1CCN(c2ccc3c(O)c(C(=O)NCc4ccc(C#N)nc4)ncc3n2)CC1 [Example 86] | < 0.005 | 10 to 100
10 | N#Cc1ccc(CNC(=O)c2ncc3nc(N4CCN(C(=O)CCO)CC4)ccc3c2O)cn1 [Example 72, N-((6-cyanopyridin-3-yl)methyl)-5-hydroxy-2-(4-(3-hydroxypropanoyl)piperazin-1-yl)-1,7-naphthyridine-6-carboxamide] | < 0.005 | 5 to 7.5
11 | CC(C)(C)OC(=O)N1CCN(c2ccc3c(O)c(C(=O)NCc4cnc(C#N)nc4)ncc3n2)CC1 [Example 133] | 0.005 to 0.02 | 2.5 to 5
12 | COC(=O)N1CCN(c2ccc3c(O)c(C(=O)NCc4ccc(C#N)nc4)ncc3n2)CC1 [Example 120] | < 0.005 | 10 to 100
13 | C[C@@H]1CN(C(=O)OC(C)(C)C)CCN1c1ccc2c(O)c(C(=O)NCc3ccc(C#N)nc3)ncc2n1 [Example 150] | < 0.005 | < 2.5
14 | CC(C)OC(=O)N1CCN(c2ccc3c(O)c(C(=O)NCc4ccc(C#N)nc4)ncc3n2)CC1 [Example 138] | < 0.005 | 2.5 to 5
15 | CC(C)(C)OC(=O)N[C@@H]1CCN(c2ccc3c(O)c(C(=O)NCc4ccc(C#N)nc4)ncc3n2)C1 [Example 140] | 0.005 to 0.02 | 2.5 to 5
16 | CC(NC(=O)c1ncc2nc(N3CCOCC3)ccc2c1O)c1ccc(C#N)nc1 (stereo not shown) [Example 21] | 0.02 to 0.1 | 10 to 100
17 | N#Cc1ccc(CNC(=O)c2ncc3nc(N4CCC(C(=O)OC5CC5)CC4)ccc3c2O)cn1 [Example 96] | < 0.005 | 10 to 100
18 | N#Cc1ccc(CNC(=O)c2ncc3nc(N4CC[C@@H](O)C4)ccc3c2O)c(Cl)c1 [Example 6, (R)—N-(2-chloro-4-cyanobenzyl)-5-hydroxy-2-(3-hydroxypyrrolidin-1-yl)-1,7-naphthyridine-6-carboxamide] | 0.005 to 0.02 | 2.5 to 5
19 | N#Cc1ccc(CNC(=O)c2ncc3nc(N4CC[C@H](C(=O)N5CCNCC5)C4)ccc3c2O)cn1 [Example 41, (S)—N-((6-cyanopyridin-3-yl)methyl)-5-hydroxy-2-(3-(piperazine-1-carbonyl)pyrrolidin-1-yl)-1,7-naphthyridine-6-carboxamide] | < 0.005 | 10 to 100

Row | SMILES | IC50 (PHD2) [µM] | EC50 [1] [µM]
20 | COC(=O)[C@H]1CN(c2ccc3c(O)c(C(=O)NCc4ccc(C#N)nc4)ncc3n2)CCN1 [Example 50, methyl (R)-4-(6-(((6-cyanopyridin-3-yl)methyl)carbamoyl)-5-hydroxy-1,7-naphthyridin-2-yl)piperazine-2-carboxylate] | < 0.005 | 10 to 100
21 | N#Cc1ccc(CNC(=O)c2ncc3nc(N4CC(N)C4)ccc3c2O)cn1 [Example 128, 2-(3-aminoazetidin-1-yl)-N-((6-cyanopyridin-3-yl)methyl)-5-hydroxy-1,7-naphthyridine-6-carboxamide] | 0.02 to 0.1 | 5 to 7.5
22 | CCOC(=O)C1CCN(c2ccc3c(O)c(C(=O)NCc4ccc(C#N)nc4)ncc3n2)CC1 [Example 94] | < 0.005 | 7.5 to 10
23 | COC(=O)[C@H]1CN(c2ccc3c(O)c(C(=O)NCc4ccc(C#N)nc4)ncc3n2)CCO1 [Example 92] | < 0.005 | 5 to 7.5
24 | CC(C)OC(=O)C1CCN(c2ccc3c(O)c(C(=O)NCc4ccc(C#N)nc4)ncc3n2)CC1 [Example 95] | < 0.005 | 10 to 100
25 | COC(=O)CC1CN(c2ccc3c(O)c(C(=O)NCc4ccc(C#N)nc4)ncc3n2)C1 [Example 152] | < 0.005 | 2.5 to 5
26 | N#Cc1ccc(CNC(=O)c2ncc3nc(N4CCN(C5CC5)CC4)ccc3c2O)c(Cl)c1 [Example 4] | 0.005 to 0.02 | 10 to 100
27 | Cc1cc(C#N)ncc1CNC(=O)c1ncc2nc(N3CCOCC3)ccc2c1O [Example 20] | < 0.005 | 2.5 to 5
28 | C[C@H](NC(=O)c1ncc2nc(N3CCOCC3)ccc2c1O)c1ccc(C#N)cc1 [Example 17] | 1 to 100 | 10 to 100
29 | CP1(=O)CCN(c2ccc3c(O)c(C(=O)NCc4ccc(C#N)cc4Cl)ncc3n2)CC1 [Example 16] | < 0.005 | 10 to 100
30 | COC(=O)C1(O)CN(c2ccc3c(O)c(C(=O)NCc4ccc(C#N)nc4)ncc3n2)C1 [Example 121] | < 0.005 | 7.5 to 10
31 | CO[C@@H]1CCN(c2ccc3c(O)c(C(=O)NCc4ccc(C#N)nc4)ncc3n2)C1 [Example 27] | < 0.005 | < 2.5
32 | N#Cc1ccc(CNC(=O)c2ncc3nc(N4CCN(C5CC5)[C@@H](CO)C4)ccc3c2O)c(Cl)c1 [Example 70] | 0.005 to 0.02 | 2.5 to 5
33 | C[C@@H]1CN(c2ccc3c(O)c(C(=O)NCc4ccc(C#N)nc4)ncc3n2)CCN1C(=O)OC(C)(C)C [Example 149] | < 0.005 | 2.5 to 5
34 | CC(C)(C)OC(=O)N1CCN(c2ccc3c(O)c(C(=O)NCc4ccc(C#N)nc4)ncc3n2)C(=O)C1 [Example 101] | < 0.005 | 2.5 to 5
35 | N#Cc1ccc(CNC(=O)c2ncc3nc(N4CCC(N)CC4)ccc3c2O)cn1 [Example 124, 2-(4-aminopiperidin-1-yl)-N-((6-cyanopyridin-3-yl)methyl)-5-hydroxy-1,7-naphthyridine-6-carboxamide] | < 0.005 | 10 to 100
36 | CC(C)(C)OC(=O)N[C@H]1CC(=O)N(c2ccc3c(O)c(C(=O)NCc4ccc(C#N)nc4)ncc3n2)C1 [Example 143] | < 0.005 | < 2.5
37 | N#Cc1ccc(CNC(=O)c2ncc3nc(N4CC[C@H](N)C4)ccc3c2O)cn1 [Example 126, (S)-2-(3-aminopyrrolidin-1-yl)-N-((6-cyanopyridin-3-yl)methyl)-5-hydroxy-1,7-naphthyridine-6-carboxamide] | < 0.005 | 10 to 100
38 | C[C@H]1CN(C(=O)OC(C)(C)C)CCN1c1ccc2c(O)c(C(=O)NCc3ccc(C#N)nc3)ncc2n1 [Example 139] | < 0.005 | 2.5 to 5
